Measurements: the CheMixHub viscosity set
± gives the uncertainty stated by the source.

Assay: xn = mol fraction of the nth substance listed

CCC(O)CC + O
298.15 K, 101 kPa
Conditions	viscosity [mPa·s]
x2 = 0.0181	4.598 ± 0.043
x2 = 0.0463	4.339 ± 0.042
x2 = 0.0845	4.074 ± 0.041
x2 = 0.1302	3.873 ± 0.042
x2 = 0.1754	3.748 ± 0.043
x2 = 0.1948	3.712 ± 0.044
x2 = 0.2262	3.67 ± 0.045
x2 = 0.2533	3.65 ± 0.046
x2 = 0.2782	3.641 ± 0.047
x2 = 0.3215	3.648 ± 0.05

CCCCCCCCC + CCCCCCCCCCCC
298.15 K, 101.33 kPa
Conditions	viscosity [mPa·s]
x1 = 0.0957	1.273 ± 0.031
x1 = 0.1995	1.187 ± 0.029
x1 = 0.3049	1.111 ± 0.027
x1 = 0.4056	1.022 ± 0.025
x1 = 0.5088	0.969 ± 0.024
x1 = 0.6103	0.8955 ± 0.023
x1 = 0.7039	0.8282 ± 0.021
x1 = 0.8049	0.7721 ± 0.02
x1 = 0.9023	0.7118 ± 0.019

C1COCO1 + CC(C)(C)O
303.15 K, 101 kPa
Conditions	viscosity [mPa·s]
x1 = 0.1001	1.967 ± 0.024
x1 = 0.2001	1.468 ± 0.022
x1 = 0.3001	1.102 ± 0.021
x1 = 0.4001	0.8793 ± 0.021
x1 = 0.5001	0.7657 ± 0.021
x1 = 0.6001	0.6755 ± 0.02
x1 = 0.7001	0.6067 ± 0.02
x1 = 0.8001	0.5731 ± 0.02
x1 = 0.9001	0.566 ± 0.02

C1COCO1 + CC(=O)O
298.15 K, 101 kPa
Conditions	viscosity [mPa·s]
x1 = 0.0826	1.097 ± 0.0093
x1 = 0.1685	1.076 ± 0.0091
x1 = 0.2578	1.042 ± 0.0088
x1 = 0.3508	0.996 ± 0.0084
x1 = 0.4477	0.9442 ± 0.008
x1 = 0.5487	0.883 ± 0.0075
x1 = 0.6541	0.8162 ± 0.0069
x1 = 0.7643	0.7415 ± 0.0063
x1 = 0.8795	0.6626 ± 0.0057

CC(=O)c1ccccc1 + CCOC(C)=O
viscosity [mPa·s], 100 kPa
Conditions	x1 = 0.0775	x1 = 0.1574	x1 = 0.2396	x1 = 0.3244	x1 = 0.4119	x1 = 0.5021	x1 = 0.5953	x1 = 0.6915	x1 = 0.7909	x1 = 0.8937
303.15 K	0.4772 ± 0.0034	0.5756 ± 0.004	0.6734 ± 0.0045	0.7711 ± 0.005	0.8688 ± 0.0056	0.9666 ± 0.0061	1.064 ± 0.0067	1.162 ± 0.0072	1.26 ± 0.0077	1.358 ± 0.0083
313.15 K	0.424 ± 0.0031	0.5047 ± 0.0036	0.5856 ± 0.004	0.6665 ± 0.0045	0.7474 ± 0.0049	0.8284 ± 0.0054	0.9093 ± 0.0058	0.9902 ± 0.0063	1.071 ± 0.0067	1.152 ± 0.0072
323.15 K	0.374 ± 0.0028	0.4427 ± 0.0032	0.5114 ± 0.0036	0.5801 ± 0.004	0.6488 ± 0.0044	0.7175 ± 0.0048	0.7862 ± 0.0051	0.8549 ± 0.0055	0.9236 ± 0.0059	0.9923 ± 0.0063

[Al+3].[Cl-].[Cl-].[Cl-] + O
Conditions	viscosity [mPa·s]
293.15 K, 101 kPa, x1 = 0.039	5.58 ± 0.15

CN(C)P(=O)(N(C)C)N(C)C + CCCO
303.15 K, 101.3 kPa
Conditions	viscosity [mPa·s]
x1 = 0.0989	1.896 ± 0.021
x1 = 0.1996	1.991 ± 0.024
x1 = 0.3022	2.102 ± 0.029
x1 = 0.4027	2.217 ± 0.034
x1 = 0.4525	2.272 ± 0.037
x1 = 0.598	2.444 ± 0.046
x1 = 0.6994	2.569 ± 0.053
x1 = 0.7809	2.666 ± 0.059
x1 = 0.8672	2.766 ± 0.065

O=S(Cl)Cl + Cc1ccccc1
298.15 K, 101 kPa
Conditions	viscosity [mPa·s]
x1 = 0.261	0.5832 ± 0.015
x1 = 0.426	0.6019 ± 0.016
x1 = 0.559	0.6139 ± 0.016
x1 = 0.72	0.6223 ± 0.016
x1 = 0.802	0.625 ± 0.016
x1 = 0.923	0.6236 ± 0.016

CN(C)P(=O)(N(C)C)N(C)C + CC(C)(C)O
303.15 K, 101.3 kPa
Conditions	viscosity [mPa·s]
x1 = 0.0784	3.704 ± 0.038
x1 = 0.103	3.722 ± 0.039
x1 = 0.1988	3.624 ± 0.043
x1 = 0.2201	3.547 ± 0.043
x1 = 0.3076	3.4 ± 0.046
x1 = 0.4051	3.263 ± 0.05
x1 = 0.4476	3.23 ± 0.052
x1 = 0.5093	3.185 ± 0.054
x1 = 0.6062	3.118 ± 0.059
x1 = 0.7077	3.068 ± 0.063
x1 = 0.8008	3.02 ± 0.068
x1 = 0.9029	2.973 ± 0.072

CCCOCC(C)O (stereo not given) + CCO
viscosity [mPa·s], 101.33 kPa
Conditions	298.15 K	308.15 K	318.15 K
x1 = 0.05	1.18 ± 0.018	0.974 ± 0.016	0.813 ± 0.013
x1 = 0.1	1.272 ± 0.02	1.041 ± 0.017	0.863 ± 0.014
x1 = 0.15	1.363 ± 0.021	1.108 ± 0.017	0.911 ± 0.015
x1 = 0.2	1.448 ± 0.022	1.171 ± 0.018	0.96 ± 0.015
x1 = 0.25	1.534 ± 0.023	1.231 ± 0.019	1.005 ± 0.016
x1 = 0.3	1.612 ± 0.025	1.288 ± 0.02	1.046 ± 0.017
x1 = 0.35	1.716 ± 0.026	1.362 ± 0.021	1.105 ± 0.017
x1 = 0.4	1.79 ± 0.027	1.417 ± 0.022	1.142 ± 0.018
x1 = 0.45	1.862 ± 0.028	1.467 ± 0.023	1.177 ± 0.018
x1 = 0.5	1.928 ± 0.029	1.513 ± 0.023	1.21 ± 0.019
x1 = 0.55	1.998 ± 0.03	1.557 ± 0.024	1.241 ± 0.019
x1 = 0.6	2.056 ± 0.031	1.602 ± 0.024	1.274 ± 0.02
x1 = 0.65	2.113 ± 0.032	1.651 ± 0.025	1.297 ± 0.02
x1 = 0.7	2.168 ± 0.032	1.674 ± 0.025	1.322 ± 0.021
x1 = 0.75	2.219 ± 0.033	1.706 ± 0.026	1.345 ± 0.021
x1 = 0.8	2.264 ± 0.034	1.734 ± 0.026	1.368 ± 0.021
x1 = 0.8498	2.307 ± 0.034	1.766 ± 0.027	1.389 ± 0.022
x1 = 0.9	2.354 ± 0.035	1.79 ± 0.027	1.406 ± 0.022
x1 = 0.95	2.369 ± 0.035	1.815 ± 0.028	1.414 ± 0.022

O=S(Cl)Cl + c1ccccc1
298.15 K, 101 kPa
Conditions	viscosity [mPa·s]
x1 = 0.181	0.5962 ± 0.015
x1 = 0.366	0.5999 ± 0.015
x1 = 0.481	0.602 ± 0.016
x1 = 0.686	0.6068 ± 0.016
x1 = 0.877	0.6165 ± 0.016

CCCCCCCCc1ccccc1 + CCCCCCCCCCCCCCCC
viscosity [mPa·s], 102 kPa
Conditions	x1 = 0.1177	x1 = 0.2297	x1 = 0.3377	x1 = 0.4423	x1 = 0.5431	x1 = 0.6411	x1 = 0.7351	x1 = 0.8263	x1 = 0.9146
293.15 K	3.28 ± 0.02	3.16 ± 0.02	3.05 ± 0.02	2.94 ± 0.02	2.85 ± 0.02	2.78 ± 0.02	2.71 ± 0.02	2.65 ± 0.02	2.62 ± 0.06
303.15 K	2.61 ± 0.02	2.52 ± 0.02	2.44 ± 0.02	2.36 ± 0.02	2.3 ± 0.02	2.25 ± 0.02	2.19 ± 0.01	2.15 ± 0.01	2.12 ± 0.03
313.15 K	2.13 ± 0.02	2.06 ± 0.02	2 ± 0.01	1.94 ± 0.01	1.89 ± 0.01	1.86 ± 0.01	1.81 ± 0.01	1.78 ± 0.01	1.76 ± 0.01
323.15 K	1.77 ± 0.01	1.72 ± 0.01	1.67 ± 0.01	1.63 ± 0.01	1.59 ± 0.01	1.56 ± 0.01	1.52 ± 0.01	1.5 ± 0.01	1.48 ± 0.01

Cc1cccc(C)n1 + c1ccccc1
viscosity [mPa·s], 101 kPa
Conditions	x1 = 0.0985	x1 = 0.1989	x1 = 0.2996	x1 = 0.3945	x1 = 0.5025	x1 = 0.5994	x1 = 0.6976	x1 = 0.8006	x1 = 0.9013
303 K	0.5677 ± 0.0041	0.58 ± 0.0043	0.607 ± 0.0047	0.6191 ± 0.0051	0.6385 ± 0.0056	0.6614 ± 0.0062	0.6823 ± 0.0068	0.7108 ± 0.0075	0.7403 ± 0.0083
313 K	0.501 ± 0.0037	0.514 ± 0.0039	0.5301 ± 0.0042	0.5472 ± 0.0046	0.5654 ± 0.005	0.5824 ± 0.0055	0.6012 ± 0.006	0.6267 ± 0.0067	0.648 ± 0.0073
323 K	0.4471 ± 0.0034	0.4595 ± 0.0036	0.4735 ± 0.0038	0.4858 ± 0.0041	0.5011 ± 0.0045	0.5177 ± 0.0049	0.5355 ± 0.0054	0.5569 ± 0.006	0.5778 ± 0.0066
